Measured values published in publication PMC9653453, “Development of truncated elastin-like peptide analogues with improved temperature-response and self-assembling properties” (Scientific Reports, 2022).
“And” between values parts separate entries of the source, which are not always exact repeats. Equal entries are not always repeated. Ends that are not written are not given here.

Tests used:
[1] = Turbidity measurement (phase transition temperature Tt, coacervation) in phosphate buffer pH 7.4; format: physicochemical; details: for Tt, phase transition temperature: heating 0.5 ℃/min from 5 ℃, mean ± SE, at least three measurements; for Coacervation on heating (in words): peptide 50 mg/mL (69.5 mM)
Procedure: Turbidity measurements were performed in accordance with previous reports. The temperature-dependent self-assembling properties of the ELP analogues were evaluated using a JASCO V-660 spectral photometer (JASCO Co., Tokyo, Japan). Peptide sample solutions of different concentrations (2.0, 5.0, 10, 20, 30, or 50 mg/mL) were prepared by dissolving each peptide (except for AADAAC-(FPGV)n) in phosphate buffer (27.4 mM Na2HPO4, 17.8 mM NaH2PO4, pH 7.4). AADAAC-(FPGV)4 was dissolved in Tris–HCl buffer solution (50.0 mM Tris, at pH 8.4 or 50.0 mM Tris, 154 mM NaCl, at pH 8.4) to prepare sample solutions of a concentration of 0.5 or 10 mg/mL in the absence or presence of the equimolar amount of CdCl2. Turbidity was measured at 400 nm with increasing or decreasing temperature at a rate of 0.5 ℃/min from 5 ℃. The concentration of each sample solution was measured at least three times. The self-assembling property was described by the phase transition temperature (Tt), which is the temperature at which the turbidity of the solution reaches half the maximum value.

[2] = RP-UPLC retention time, used as measure of peptide hydrophobicity; format: physicochemical; details: RP-UPLC-MS; chromatographic
Procedure: Peptide synthesis was carried out using the conventional solid-phase peptide synthesis procedure (see supplementary information). The synthesized peptides were purified using RP-HPLC. The purity and molecular weight of each peptide were confirmed using RP-UPLC-MS (Table S1 and Fig. S1). […]
Retention times of each peptide were determined by RP-UPLC-MS.

[3] = Dynamic light scattering (DLS) size distribution of coacervates; format: physicochemical; details: phosphate buffer pH 7.4; for Temperature-dependent particle size by DLS (in words): 10 to 50 ℃ in 10 ℃ steps, peptide concentrations as in Fig. 3 (2.0-50 mg/mL); for Hydrodynamic diameter (DLS): peptide 10 mg/mL, filtered 0.2 µm
Procedure: The distribution of the particle size in the truncated ELP analogue solution was analyzed via DLS using Zetasizernano ZS (Malvern Instruments Ltd., Worcestershire, U.K.) in a measurement cell ZEN0112 (Malvern Instruments Ltd.)[33]. Peptide samples of different concentrations (2.0, 10, 20, 30, or 50 mg/mL) were prepared by dissolving each peptide in phosphate buffer (27.4 mM Na2HPO4, 17.8 mM NaH2PO4, pH 7.4) and filtered using the Millex-LG filter (pore size 0.2 µm, Merck Millipore) before measurement. DLS analysis was performed by increasing the temperature at 10 ℃ intervals from 10 to 50 ℃. Measurement duration was selected automatically. Parameter dataset “protein” (dataset: refractive index, 1.450; absorption, 0.001) was used as the material parameter, and parameter dataset “water” (dataset: refractive index, 1.330; viscosity, 0.8872) was chosen as the dispersant parameter. Attenuation was selected automatically. Each concentration was measured at least three times.

[4] = Optical microscopy of peptide aggregates with image analysis of particle size; format: physicochemical; details: peptide 10 mg/mL, phosphate buffer pH 7.4
Procedure: The morphology of the coacervates of (FPGVG)4, (FPGV)4, and (FPG)4 was observed using optical microscopy. Light field observation was performed using a Leica DM IL LED microscope (Leica Microsystems CMS, Wetzlar, Germany) equipped with HI PLAN 40 × (Leica Microsystems CMS) and HC PLAN 10 × (Leica Microsystems CMS) objectives. Each peptide was dissolved in phosphate buffer (27.4 mM Na2HPO4, 17.8 mM NaH2PO4, at pH 7.4) to a concentration of 10 mg/mL and applied on a glass slide. Sample imaging was performed below and above the Tt of each peptide using a Thermo Plate TP-CHSQM (Tokai Hit Co., Ltd., Shizuoka, Japan). Sample images above Tt were taken 3 min after the sample reached the target temperature. The details of the image analysis is shown in the Supplementary Information file.
Size distribution of coacervates of ELP analogues formed above the Tt was analyzed using optical microscopy images of each peptide. Image analysis was performed using Image J/Fiji (NIH, USA), an open-source image analysis software.^2 Spatial calibration was carried out using […] in original images. The images of peptide coacervates were converted to a binary image via the menu command Image > Type > 8-bit. Using "analyze particle" command, the Feret diameters of the particles within the image were measured.

[5] = Colorimetric (xylenol orange) determination of Cd^2+ removal by peptide coacervation; details: peptide 1.0 mg/mL, mean ± SE
Procedure: Colorimetric analyses of cadmium ions (Cd^2+) were carried out to evaluate the number of metal ions absorbed into the coacervation phase of the peptides by using a spectral photometer (JASCO V-660)[45]. […] The peptide solutions were incubated at 4 ℃ for 3, 6, or 12 h and then at 60 ℃ for 1.5 h to separate into the lower coacervation phase from the upper equilibrium solution phase. After incubation, the peptide solution was immediately centrifuged at room temperature for 2 min (6,200 rpm) to remove aggregates. An aliquot of 333 µL of supernatant of the equilibrium solution phase was added to 600 µL of acetate buffer solution (pH5.4) including 67 μM of XO and incubated for 10 min. Subsequently, the concentrations of Cd^2+ or Zn^2+ were determined by measuring the absorbance at 575 nm or 550 nm, respectively, which corresponds to the absorbance of the metal-XO complex. The amount of metal ions absorbed in the peptide solution was determined by the calibration line, which was prepared in the same manner by using a series of standard CdCl2 or ZnCl2 aqueous solutions of known concentrations. The homogeneity of variances between the concentration of each metal ion in the supernatant and the control solution was confirmed using the F test. The statistical significance of the difference between the concentration of each metal ion in the supernatant and the control solution was determined using the Student's t-test. Results were considered statistically significant at P values of ≤ 0.01.

[6] = Turbidity measurement (phase transition temperature Tt, coacervation) in phosphate buffer pH 7.4; format: physicochemical; details: peptide 1.0 mg/mL, turbidity at 400 nm, heating 0.5 ℃/min from 5 ℃, half-maximal turbidity, mean ± SE, at least three measurements
[7] = peptide 5.0 mg/mL, phosphate buffer pH 7.4, turbidity at 400 nm, half-maximal turbidity
[8] = peptide 10 mg/mL, phosphate buffer (27.4 mM Na2HPO4, 17.8 mM NaH2PO4, pH 7.4), turbidity at 400 nm, Tt = temperature at half-maximal turbidity
[9] = phosphate buffer pH 7.4, turbidity at 400 nm
[10] = peptide 2.0 mg/mL, phosphate buffer pH 7.4, turbidity at 400 nm, half-maximal turbidity

Tt, phase transition temperature [1, 7] [°C]	Tt, phase transition temperature [1, 8] [°C]	UPLC retention time (measure of hydrophobicity) [2] [min]	Substance	Temperature-dependent particle size by DLS (in words) [3]	further results
71.6 ± 0.8	45.2 ± 0.9	1.739	FPGVFPGVFPGV-NH2 [(FPGV)3]	formed sub-micron particles below Tt, which grew into micrometer-sized particles above Tt	
		0.466	FPGVFPG-NH2 [(FPGV)(FPG)]	did not show micrometer-sized particles	Coacervation on heating (in words) [1, 9]: did not show coacervation
		0.583	FPGVFPGV-NH2 [(FPGV)2]	did not show micrometer-sized particles	Turbidity change / coacervation on heating (in words) ([1]; peptide 30 mg/mL (36.7 mM), phosphate buffer pH 7.4, turbidity at 400 nm): did not exhibit turbidity change
	45.3 ± 0.6	2.493	VFPGVFPGVFPGVFPG-NH2 [(VFPG)4, H-(VFPG)n-NH2 (n = 4)]		
		1.835	FPGFPGFPGFPG-NH2 [(FPG)4, H-(FPG)4-NH2]	formed irreversible aggregates in the aqueous solution at 10 °C	Aggregation behaviour in aqueous solution (in words) ([1]; peptide 10 mg/mL, aqueous solution / phosphate buffer pH 7.4, with elapsed time without a temperature rise): formed irreversible aggregates; Morphology of aggregates (optical microscopy, in words) [4]: filamentous aggregates
		0.760	FPGFPGV-NH2 [(FPG)(FPGV), H-(FPG)(FPGV)-NH2]	did not show micrometer-sized particles	Coacervation on heating (in words) [1, 9]: did not show coacervation
25.6 ± 1.2	20.5 ± 0.1	2.691	FPGVGFPGVGFPGVGFPGVGFPGVG-NH2 [(FPGVG)5, reference compound]		Tt, phase transition temperature [1, 10]: 39.0 ± 0.2 °C; Hydrodynamic diameter (DLS) ([3]; at 10 ℃, Zetasizer cumulant fit): approximately 3 nm; Hydrodynamic diameter (DLS) ([3]; at temperatures above 20 ℃): 3–5 µm; Tt, phase transition temperature [6]: 56.6 ± 1.3 °C

Substance	Tt, phase transition temperature [1, 7] [°C]	Tt, phase transition temperature [1, 8] [°C]	UPLC retention time (measure of hydrophobicity) [2] [min]	Temperature-dependent particle size by DLS (in words) [3]	further results
FPGVFPGVFPGVFPGV-NH2 [(FPGV)4]	23.4 ± 0.1	17.0 ± 0.2	2.431	rapidly formed micrometer-sized particles at 20 °C	Tt, phase transition temperature [1, 10]: 36.7 ± 0.3 °C; Morphology of aggregates (optical microscopy, in words) [4]: spherical aggregates; Particle size of coacervates (optical microscopy image analysis, Feret diameter) ([4]; above Tt ((FPGVG)4 40 °C, (FPGV)4 25 °C), ImageJ/Fiji): 2–4 µm; Concentration of metal ion in the supernatant ([5]; Cd^2+ (0.236 mM CdCl2), incubation 12 h at 4 ℃ then 60 ℃ 1.5 h, Tris-HCl (50.0 mM Tris, 599 mM NaCl, pH 8.0), at least three measurements): 19.0 ± 0.97 ppm; Removal efficiency ([5]; Cd^2+, incubation 12 h, versus control without peptide): 27.2% and 27.2 ± 0.04%; Tt, phase transition temperature [6]: 51.3 ± 0.1 °C
